In assay [1] the test system is human breast cancer cell MDA-MB-231-Luc. Briefly: In vivo breast cancer cell tumor regression activity. Particulars: orally 100 mg/kg, twice per day for 14 days; subcutaneous MDA-MB-231-Luc tumor in female nude mouse. As to the method:
MDA-MB-231 cells (American Tissue Culture Collection) were suspended in DMEM medium (Invitrogen) containing 10% fetal bovine serum (Cell Culture Bioscience), plated in a 12-well plate at 1×10^5 cells/mL, each well 1 mL, and the cells were cultured. After 24 hr of culture, the medium was removed, 100 μL of OMEM (Invitrogen) containing […] of pGL4 CMV-luc/Neo plasmid and Lipofectamin LTX (Invitrogen) was added to each well for transfection according to the attached instruction manual. After the plasmid DNA introduction is operation for 25 min., the medium was exchanged with DMEM medium, and the cells were further cultured for 72 hr. The introduced cells were suspended in a medium containing […] G418 (Sigma Ltd.) by a trypsin (Invitrogen) treatment, and plated again in a 6-well plate. […] Finally, MDA-MB-231 cells capable of growing in a medium containing […] G418 were treated by a limit dilution method to give a single colony. Luciferin (Promega) was added to MDA-MB-231 cells in each clone, and the chemical luminescence level was measured using ARVO (PerkinElmer) to give MDA-MB-231-Luc.
The human breast cancer cell MDA-MB-231-Luc ([…]) obtained in Experimental Example 5 were suspended in Matrigel solution (BD Bioscience) and transplanted into 6-week-old BALE/c female nude mouse (CLEA Japan, Inc.) by subcutaneous injection. Mice with a tumor engrafted at a size in tumor volume of about 200 mm^3 on day 12-15 post-transplantation were selected and 5 per group were used for the experiment. A 0.5% methylcellulose (Wako Pure Chemical Industries, Ltd.) suspension or 0.1 M PBS solution (NaH2PO4/Na2HPO4, pH 5.8) of the compound was orally administered at a dose of 100 mg/kg, twice per day for 14 days. The tumor diameter was measured on the day of start of the administration and the day of completion of the administration, and the tumor volume was obtained from formula 1.
tumor volume=long diameter×short diameter×short diameter×(½) formula 1
The ratio of the value obtained by subtracting tumor volume on the day of completion of the administration from that on the day of start of the administration to the tumor volume on the day of start of the administration was obtained as a tumor regression rate from the formula 2.
tumor regression rate (%)=(tumor volume on the day of start of administration−tumor volume on the day of completion of administration)/tumor volume on the day of start of administration×100 formula 2

Assay [2] has as its target human XIAP_BIR3 domain purified protein (Homo sapiens, UniProt P98170). Briefly: Human XIAP binding inhibitory activity (HTRF, b-Smac ligand). To be noted: read-out: XIAP binding inhibitory rate (%) at 3 μM of the test compound.

Structures can show the parent of a compound that is named as a salt.

Sequence of human XIAP_BIR3 domain purified protein (P98170 252-356 limits assumed): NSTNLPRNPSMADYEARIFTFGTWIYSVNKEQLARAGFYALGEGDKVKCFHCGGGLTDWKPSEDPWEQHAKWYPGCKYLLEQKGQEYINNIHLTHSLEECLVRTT

As to `CCO[C@@H]1C[C@@H]2CN(C(=O)[C@@H](NC(=O)[C@H](C)NC)C3CCCCC3)[C@H](C(=O)N[C@@H]3CCOc4ccccc43)CN2C1` [Example 18, (3S,7R,8aR)-2-{(2S)-2-cyclohexyl-2-[(N-methyl-L-alanyl)amino]acetyl}-N-[(4R)-3,4-dihydro-2H-chromen-4-yl]-7-ethoxyoctahydropyrrolo[1,2-a]pyrazine-3-carboxamide], the “tumor regression rate (%)” value in assay [1] was found to be 78%. Moreover, in assay [2], the inhibition at 3 µM is 99.6%.
For the compound `CN[C@@H](C)C(=O)N[C@@H](CCCCNC(=O)CCCCCCCCC(=O)NCCCC[C@H](NC(=O)[C@H](C)NC)C(=O)N1C[C@H]2CCCN2C[C@H]1C(=O)N[C@@H]1CCCc2ccccc21)C(=O)N1C[C@H]2CCCN2C[C@H]1C(=O)N[C@@H]1CCCc2ccccc21` [Example 126, N,N′-bis{(5S)-5-[(N-methyl-L-alanyl)amino]-6-oxo-6-[(3S,8aR)-3-[(1R)-1,2,3,4-tetrahydronaphthalen-1-ylcarbamoyl]hexahydropyrrolo[1,2-a]pyrazin-2(1H)-yl]hexyl}decanediamide], in assay [2], the inhibition at 3 µM worked out at 99%.
Still for that read-out and setting: the value for `CCO[C@@H]1C[C@@H]2CN(C(=O)[C@@H](NC(=O)[C@H](CC)NC)C3CCC(F)(F)CC3)[C@H](C(=O)N[C@@H]3CCOc4ccccc43)CN2C1` [Example 127, (3S,7R,8aR)-2-[(2S)-2-(4,4-difluorocyclohexyl)-2-{[(2S)-2-(methylamino)butanoyl]amino}acetyl]-N-[(4R)-3,4-dihydro-2H-chromen-4-yl]-7-ethoxyoctahydropyrrolo[1,2-a]pyrazine-3-carboxamide] was 98%; that for `CN[C@@H](C)C(=O)N[C@@H](CCCNC(=O)OCc1ccccc1)C(=O)N1C[C@H]2CCCN2C[C@H]1C(=O)N[C@@H]1CCCc2ccccc21` [Example 5, benzyl{(4S)-4-[(N-methyl-L-alanyl)amino]-5-oxo-5-[(3S,8aR)-3-((1R)-1,2,3,4-tetrahydronaphthalen-1-ylcarbamoyl)hexahydropyrrolo[1,2-a]pyrazin-2(1H)-yl]pentyl}carbamate dihydrochloride] was 99.2%; that for `CN[C@@H](C)C(=O)N[C@@H](CCCCNC(=O)OCc1ccccc1)C(=O)N1C[C@H]2CCCN2C[C@H]1C(=O)N[C@@H]1CCCc2ccccc21` [Example 6, benzyl{(5S)-5-[(N-methyl-L-alanyl)amino]-6-oxo-6-[(3S,8aR)-3-[(1R)-1,2,3,4-tetrahydronaphthalen-1-ylcarbamoyl]hexahydropyrrolo[1,2-a]pyrazin-2(1H)-yl]hexyl}carbamate dihydrochloride] was 98.8%.
Take `CN[C@@H](C)C(=O)N[C@H](C(=O)N1C[C@H]2CCCN2C[C@H]1C(=O)N[C@@H]1CCOc2ccccc21)C1CCC(F)(F)CC1.Cl.Cl` [Example 32, (3S,8aR)-2-{(2S)-2-(4,4-difluorocyclohexyl)-2-[(N-methyl-L-alanyl)amino]acetyl}-N-[(4R)-3,4-dihydro-2H-chromen-4-yl]octahydropyrrolo[1,2-a]pyrazine-3-carboxamide dihydrochloride]: the “tumor regression rate (%)” value in assay [1] was determined as 61%.
Take `CCO[C@@H]1C[C@@H]2CN(C(=O)[C@@H](NC(=O)[C@H](C)NC)C3CCC(F)(F)CC3)[C@H](C(=O)N[C@@H]3CCOc4ccccc43)CN2C1` [Example 23, (3S,7R,8aR)-2-{(2S)-2-(4,4-difluorocyclohexyl)-2-[(N-methyl-L-alanyl)amino]acetyl}-N-[(4R)-3,4-dihydro-2H-chromen-4-yl]-7-ethoxyoctahydropyrrolo[1,2-a]pyrazine-3-carboxamide]: the “tumor regression rate (%)” value in assay [1] was 74%.
For `CN[C@@H](C)C(=O)N[C@H](C(=O)N1C[C@H]2CC(F)(F)CN2C[C@H]1C(=O)N[C@@H]1CCOc2ccccc21)C1CCCCC1` [Example 50, (3S,8aR)-2-{(2S)-2-cyclohexyl-2-[(N-methyl-L-alanyl)amino]acetyl}-N-[(4R)-3,4-dihydro-2H-chromen-4-yl]-7,7-difluorooctahydropyrrolo[1,2-a]pyrazine-3-carboxamide dihydrochloride], in assay [2], the inhibition at 3 µM turned out to be 97.1%.
On to `CN[C@@H](C)C(=O)N[C@H](C(=O)N1C[C@H]2C[C@@](C)(O)CN2C[C@H]1C(=O)N[C@@H]1CCOc2ccccc21)C1CCCCC1` [Example 41, (3S,7R,8aR)-2-{(2S)-2-cyclohexyl-2-[(N-methyl-L-alanyl)amino]acetyl}-N-[(4R)-3,4-dihydro-2H-chromen-4-yl]-7-hydroxy-7-methyloctahydropyrrolo[1,2-a]pyrazine-3-carboxamide dihydrochloride], for which, in assay [2], the inhibition at 3 µM stood at 93.5%.
With `CN[C@@H](C)C(=O)N[C@@H](CCCCNC(=O)c1ccc(C(=O)NCCCC[C@H](NC(=O)[C@H](C)NC)C(=O)N2C[C@H]3CCCN3C[C@H]2C(=O)N[C@@H]2CCCc3ccccc32)cc1)C(=O)N1C[C@H]2CCCN2C[C@H]1C(=O)N[C@@H]1CCCc2ccccc21` [Example 125, N,N′-bis{(5S)-5-[(N-methyl-L-alanyl)amino]-6-oxo-6-[(3S,8aR)-3-[(1R)-1,2,3,4-tetrahydronaphthalen-1-ylcarbamoyl]hexahydropyrrolo[1,2-a]pyrazin-2(1H)-yl]hexyl}benzene-1,4-dicarboxamide], the inhibition at 3 µM in assay [2] was found to be 98.9%.
Turning to `CN[C@@H](C)C(=O)N[C@H](C(=O)N1C[C@H]2CCCN2C[C@H]1C(=O)N[C@@H]1CCOc2ccccc21)c1ccccc1.Cl.Cl` [Example 19, (3S,8aR)—N-[(4R)-3,4-dihydro-2H-chromen-4-yl]-2-{(2S)-2-[(N-methyl-L-alanyl)amino]-2-phenylacetyl}octahydropyrrolo[1,2-a]pyrazine-3-carboxamide dihydrochloride], in assay [1], the “tumor regression rate (%)” value was found to be 64%.
On to `CN[C@@H](C)C(=O)N[C@H](C(=O)N1C[C@H]2CCCN2C[C@H]1C(=O)N[C@@H]1CCOc2cc(F)cc(F)c21)C1CCCCC1` [Example 24, (3S,8aR)-2-{(2S)-2-cyclohexyl-2-[(N-methyl-L-alanyl)amino]acetyl}-N-[(4R)-5,7-difluoro-3,4-dihydro-2H-chromen-4-yl]octahydropyrrolo[1,2-a]pyrazine-3-carboxamide dihydrochloride], for which the “tumor regression rate (%)” value in assay [1] was 55%. Besides, the inhibition at 3 µM in assay [2] is 97.3%.
Regarding `CN[C@@H](C)C(=O)N[C@H](C(=O)N1C[C@H]2CCCN2C[C@H]1C(=O)N[C@H]1c2ccccc2C[C@@H]1O)C1CCCCC1.Cl.Cl` [Example 26, (3S,8aR)-2-{(2S)-2-cyclohexyl-2-[(N-methyl-L-alanyl)amino]acetyl}-N-[(1S,2S)-2-hydroxy-2,3-dihydro-1H-inden-1-yl]octahydropyrrolo[1,2-a]pyrazine-3-carboxamide dihydrochloride], the “tumor regression rate (%)” value in assay [1] is 41%.
As to `CCO[C@@H]1C[C@@H]2CN(C(=O)[C@@H](NC(=O)[C@H](CC)NC)C3CCCCC3)[C@H](C(=O)N[C@@H]3CCOc4ccccc43)CN2C1` [Example 91, (3S,7R,8aR)-2-[(2S)-2-cyclohexyl-2-{[(2S)-2-(methylamino)butanoyl]amino}acetyl]-N-[(4R)-3,4-dihydro-2H-chromen-4-yl]-7-ethoxyoctahydropyrrolo[1,2-a]pyrazine-3-carboxamide], in assay [2], the inhibition at 3 µM is 95.5%.
As for `CN[C@@H](C)C(=O)N[C@H](C(=O)N1C[C@H]2CCCN2C[C@H]1C(=O)N[C@H]1c2ccccc2C[C@H]1O)C1CCCCC1` [Example 27, (3S,8aR)-2-{(2S)-2-cyclohexyl-2-[(N-methyl-L-alanyl)amino]acetyl}-N-[(1S,2R)-2-hydroxy-2,3-dihydro-1H-inden-1-yl]octahydropyrrolo[1,2-a]pyrazine-3-carboxamide dihydrochloride], in assay [2], the inhibition at 3 µM was determined as 97.2%.
Still for that read-out and setting: under `CN[C@@H](C)C(=O)N[C@H](C(=O)N1C[C@H]2C[C@@H](OCC3CC3)CN2C[C@H]1C(=O)N[C@@H]1CCOc2ccccc21)C1CCCCC1` [Example 82, (3S,7R,8aR)-2-{(2S)-2-cyclohexyl-2-[(N-methyl-L-alanyl)amino]acetyl}-7-(cyclopropylmethoxy)-N-[(4R)-3,4-dihydro-2H-chromen-4-yl]octahydropyrrolo[1,2-a]pyrazine-3-carboxamide] stands 96.6%.

Values taken from US20110034469A1, “Heterocyclic Compound” (TAKEDA PHARMACEUTICAL COMPANY LIMITED, priority 2009, published 2011).
